Key:
keratinocytes = test: Lipid production in keratinocytes, Oil Red O staining; format: cell-based; conditions: 2.5 uM, 48 hours, compared to DMSO control, FIG. 1
From the text: FIG. 1 is a photograph of keratinocytes treated with troglitazone and stained for lipids.

human preadipocytes = test: Lipid production in preadipocytes, Oil Red O staining; format: cell-based; conditions: 1.1 uM, about 48 hours, FIG. 2 and FIG. 3
From the text: FIG. 2 is a photograph of human preadipocytes treated with troglitazone and stained for lipids. FIG. 3 is a photograph of human preadipocytes treated with troglitazone and stained for lipids.

Cc1c(C)c2c(c(C)c1O)CCC(C)(COc1ccc(CC3SC(=O)NC3=O)cc1)O2 (racemic) [troglitazone, (RS)-5-(4-[(6-hydroxy-2,5,7,8-tetramethylchroman-2-yl)methoxy]benzyl)thiazolidine-2,4-dione]
lipid production in the cells (lipid droplets stained with Oil Red O) (keratinocytes): increase in lipid production
lipid production (quantity and size of lipid droplets stained with Oil Red O) (human preadipocytes): increase in the lipid production
